Laboratory results taken from ChEMBL document CHEMBL5390248, “Design, synthesis and anticancer activity evaluation of 4-(3-1H-indazolyl)amino quinazoline derivatives as PAK4 inhibitors” (Bioorg Med Chem, 2023).
pIC50: −log10 of the molar value.

Columns and labels:
[1] = target: T1, Serine/threonine-protein kinase PAK 4 (Homo sapiens, UniProt O96013); test: Inhibition of PAK4 (unknown origin) using lipid substrate at 100 nM incubated for 40 mins in presence of ATP by ADP-Glo plus luminescence kinase assay relative to control
Target sequence in this assay (O96013 whole entry, looked up): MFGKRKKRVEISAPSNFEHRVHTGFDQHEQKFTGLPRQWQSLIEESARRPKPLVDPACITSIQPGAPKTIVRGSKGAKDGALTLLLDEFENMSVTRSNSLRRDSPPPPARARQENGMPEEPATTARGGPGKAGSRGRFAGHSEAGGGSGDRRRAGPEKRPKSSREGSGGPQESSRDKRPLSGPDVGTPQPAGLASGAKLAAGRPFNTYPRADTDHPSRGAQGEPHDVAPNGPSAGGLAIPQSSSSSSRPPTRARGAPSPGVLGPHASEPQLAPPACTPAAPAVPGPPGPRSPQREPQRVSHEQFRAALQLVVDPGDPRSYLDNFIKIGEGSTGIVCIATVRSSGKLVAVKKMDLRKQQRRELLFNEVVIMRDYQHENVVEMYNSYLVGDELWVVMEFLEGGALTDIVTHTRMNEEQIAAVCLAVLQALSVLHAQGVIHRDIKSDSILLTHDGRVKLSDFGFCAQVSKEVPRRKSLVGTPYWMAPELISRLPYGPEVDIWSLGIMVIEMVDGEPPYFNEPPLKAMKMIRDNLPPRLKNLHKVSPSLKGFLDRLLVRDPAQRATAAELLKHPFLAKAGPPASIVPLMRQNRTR

[2] = system: A549; test: Induction of cell cycle arrest in human A549 cells assessed as accumulation of G1 phase cells at 3 uM measured for 24 hrs by PI staining based flow cytometric analysis (reference value: 27.5 % ); assay type: functional
[3] = system: A549; test: Induction of apoptosis in human A549 cells assessed as necrotic cells at 3 uM measured after 24 hrs by AnnexinV-FITC/propidium iodide staining based flow cytometry method (reference value: 1.11 %); assay type: functional
[4] = system: A549; test: Induction of cell cycle arrest in human A549 cells assessed as accumulation of S phase cells at 3 uM measured for 24 hrs by PI staining based flow cytometric analysis (reference value: 35.3 % ); assay type: functional
[5] = system: A549; test: cells; settings: Homo sapiens, A549, 24 h
[6] = system: A549; test: Induction of cell cycle arrest in human A549 cells assessed as accumulation of G2 phase cells at 0.5 uM measured for 24 hrs by PI staining based flow cytometric analysis (reference value: 32.4 % ); assay type: functional
[7] = system: A549; test: Induction of apoptosis in human A549 cells assessed as early apoptotic cells at 1 uM measured after 24 hrs by AnnexinV-FITC/propidium iodide staining based flow cytometry method (reference value: 0.049 %); assay type: functional
[8] = system: A549; test: Induction of apoptosis in human A549 cells assessed as viable cells at 3 uM measured after 24 hrs by AnnexinV-FITC/propidium iodide staining based flow cytometry method (reference value: 98.7 %); assay type: functional; settings: read-out: Activity
[9] = system: A549; test: Induction of apoptosis in human A549 cells assessed as late apoptotic cells at 3 uM measured after 24 hrs by AnnexinV-FITC/propidium iodide staining based flow cytometry method (reference value: 0.12 %); assay type: functional
[10] = system: A549; test: Induction of apoptosis in human A549 cells assessed as late apoptotic cells at 0.5 uM measured after 24 hrs by AnnexinV-FITC/propidium iodide staining based flow cytometry method (reference value: 0.12 %); assay type: functional
[11] = system: A549; test: Induction of apoptosis in human A549 cells assessed as necrotic cells at 0.5 uM measured after 24 hrs by AnnexinV-FITC/propidium iodide staining based flow cytometry method (reference value: 1.11 %); assay type: functional
[12] = system: A549; test: Induction of cell cycle arrest in human A549 cells assessed as accumulation of S phase cells at 1 uM measured for 24 hrs by PI staining based flow cytometric analysis (reference value: 35.3 % ); assay type: functional
[13] = system: A549; test: Induction of apoptosis in human A549 cells assessed as viable cells at 0.5 uM measured after 24 hrs by AnnexinV FITC/propidium iodide staining based flow cytometry method (reference value: 98.7 %); assay type: functional; settings: read-out: Activity
[14] = system: A549; test: Induction of cell cycle arrest in human A549 cells assessed as accumulation of G1 phase cells at 0.5 uM measured for 24 hrs by PI staining based flow cytometric analysis (reference value: 27.5 % ); assay type: functional
[15] = system: A549; test: Induction of cell cycle arrest in human A549 cells assessed as accumulation of G2 phase cells at 1 uM measured for 24 hrs by PI staining based flow cytometric analysis (reference value: 32.4 % ); assay type: functional
[16] = system: A549; test: Induction of cell cycle arrest in human A549 cells assessed as accumulation of G2 phase cells at 3 uM measured for 24 hrs by PI staining based flow cytometric analysis (reference value: 32.4 % ); assay type: functional
[17] = system: A549; test: Induction of cell cycle arrest in human A549 cells assessed as accumulation of S phase cells at 0.5 uM measured for 24 hrs by PI staining based flow cytometric analysis (reference value: 35.3 % ); assay type: functional
[18] = system: A549; test: Induction of cell cycle arrest in human A549 cells assessed as accumulation of G1 phase cells at 1 uM measured for 24 hrs by PI staining based flow cytometric analysis (reference value: 27.5 % ); assay type: functional
[19] = system: A549; test: Induction of apoptosis in human A549 cells assessed as late apoptotic cells at 1 uM measured after 24 hrs by AnnexinV-FITC/propidium iodide staining based flow cytometry method (reference value: 0.12 %); assay type: functional
[20] = system: A549; test: Induction of apoptosis in human A549 cells assessed as necrotic cells at 1 uM measured after 24 hrs by AnnexinV-FITC/propidium iodide staining based flow cytometry method (reference value: 1.11 %); assay type: functional
[21] = Antiproliferative activity against HEK293T cells assessed as inhibition of cell growth incubated for 24 hrs by CCK8 assay; assay type: toxicity, cell-based, HEK-293T; settings: human
[22] = target: T1, Serine/threonine-protein kinase PAK 4; test: Inhibition of PAK4 (unknown origin) using lipid substrate incubated for 40 mins in presence of ATP by ADP-Glo plus luminescence kinase assay
Target sequence in this assay (O96013 whole entry): as the sequence (O96013 whole entry, looked up) above

[23] = system: A549; test: Induction of apoptosis in human A549 cells assessed as early apoptotic cells at 0.5 uM measured after 24 hrs by AnnexinV-FITC/propidium iodide staining based flow cytometry method (reference value: 0.049 %); assay type: functional
[24] = system: A549; test: Induction of apoptosis in human A549 cells assessed as early apoptotic cells at 3 uM measured after 24 hrs by AnnexinV-FITC/propidium iodide staining based flow cytometry method (reference value: 0.049 %); assay type: functional
[25] = system: A549; test: Induction of apoptosis in human A549 cells assessed as viable cells at 1 uM measured after 24 hrs by AnnexinV-FITC/propidium iodide staining based flow cytometry method (reference value: 98.7 %); assay type: functional; settings: read-out: Activity
[26] = system: A549; test: Antiproliferative activity against human A549 cells assessed as inhibition of cell growth incubated for 72 hrs by CCK8 assay; assay type: functional, cell-based; settings: A549, 72 h
[27] = system: A549; test: cells; settings: Homo sapiens, A549, 72 h

Question: Which inhibition [1] does the source give for `O=C(NCCO)c1nc(Nc2n[nH]c3ccccc23)c2cc(Cl)ccc2n1` here?
Answer: Its inhibition is 3%.

Question: What does the source list for `CC(C)[C@@H](N)CNC(=O)c1nc(Nc2n[nH]c3ccccc23)c2cc(Cl)ccc2n1`?
Answer: Activity [2]: 50.9%; Activity [3]: 4.6%; Activity [4]: 26%; pIC50 [5]: 6.21; Activity [6]: 28.9%; Activity [7]: 27%; viability at 3 µM [8]: 50.5%; Activity [9]: 3.97%; Activity [10]: 1.1%; inhibition [1]: 73%; Activity [11]: 2.2%; Activity [12]: 31.2%; viability at 0.5 µM [13]: 81.6%; Activity [14]: 34.1%; Activity [15]: 22.7%; Activity [16]: 21.9%; Activity [17]: 35%; Activity [18]: 45.2%; Activity [19]: 4.83%; Activity [20]: 3.96%; IC50 at 24 h [21]: > 10000 nM; pIC50 [22]: 8.00; Activity [23]: 15.1%; Activity [24]: 41%; viability at 1 µM [25]: 64.2%

Question: With `Cc1cc(Nc2cc(Cc3ccccc3)nc(NC3CCNCC3)n2)n[nH]1` as the compound, how does the pIC50 [26] read?
Answer: The pIC50 was 5.60.

Question: For `NCCNC(=O)c1nc(Nc2n[nH]c3ccccc23)c2cc(Cl)ccc2n1`, which inhibition [1] is on record?
Answer: Its inhibition is 2%.

Question: For `O=C(NC1CNC1)c1nc(Nc2n[nH]c3ccccc23)c2cc(Cl)ccc2n1`, which inhibition [1] is on record?
Answer: Its inhibition is 10%.

Question: With `C[C@H]1CN(C(=O)c2nc(Nc3n[nH]c4ccccc34)c3cc(Cl)ccc3n2)CCN1` as the compound, how does the inhibition [1] read?
Answer: Its inhibition is 3%.

Question: Which inhibition [1] does the source give for `CNC[C@@H](C)NC(=O)c1nc(Nc2n[nH]c3ccccc23)c2cc(Cl)ccc2n1` here?
Answer: Its inhibition is 27%.

Question: With `C[C@H](N)CNC(=O)c1nc(Nc2n[nH]c3ccccc23)c2cc(Cl)ccc2n1` as the compound, how does the inhibition [1] read?
Answer: Its inhibition is 25%.

Question: With `CN(C)CCNC(=O)c1nc(Nc2n[nH]c3ccccc23)c2cc(Cl)ccc2n1` as the compound, how does the inhibition [1] read?
Answer: Its inhibition is 4%.

Question: With `Cc1nc(Nc2n[nH]c3c2CN(C(=O)N[C@H](CN(C)C)c2ccccc2)C3(C)C)c2sccc2n1` [PF-03758309] as the compound, how does the pIC50 [5] read?
Answer: The pIC50 was 6.17.

Question: What about the inhibition [1] of the same compound?
Answer: The inhibition was 81%.

Question: And the pIC50 [27]?
Answer: The pIC50 was 7.70.

Question: And the IC50 at 24 h [21]?
Answer: The IC50 at 24 h was > 10000 nM.

Question: Which results are given for `N[C@@H](CNC(=O)c1nc(Nc2n[nH]c3ccccc23)c2cc(Cl)ccc2n1)Cc1ccccc1`?
Answer: inhibition [1]: 75%; pIC50 [22]: 7.96

Question: With `CNCCNC(=O)c1nc(Nc2n[nH]c3ccccc23)c2cc(Cl)ccc2n1` as the compound, how does the inhibition [1] read?
Answer: Its inhibition is 3%.

Question: For `CC(C)[C@H](N)CNC(=O)c1nc(Nc2n[nH]c3ccccc23)c2cc(Cl)ccc2n1`, which inhibition [1] is on record?
Answer: The inhibition was 76%.

Question: What about the pIC50 [22] of the same compound?
Answer: The pIC50 was 7.80.

Question: Which inhibition [1] does the source give for `O=C(c1nc(Nc2n[nH]c3ccccc23)c2cc(Cl)ccc2n1)N1CCNCC1` here?
Answer: Its inhibition is 4%.

Question: For `CN(C)CCCNC(=O)c1nc(Nc2n[nH]c3ccccc23)c2cc(Cl)ccc2n1`, which inhibition [1] is on record?
Answer: Its inhibition is 11%.

Question: With `N[C@H](CNC(=O)c1nc(Nc2n[nH]c3ccccc23)c2cc(Cl)ccc2n1)Cc1ccccc1` as the compound, how does the pIC50 [5] read?
Answer: Its pIC50 is 5.64.

Question: And the inhibition [1]?
Answer: Its inhibition is 77%.

Question: And the IC50 at 24 h [21]?
Answer: The IC50 at 24 h was > 10000 nM.

Question: What about the pIC50 [22] of the same compound?
Answer: Its pIC50 is 8.05.

Question: For `C[C@@H]1CN(C(=O)c2nc(Nc3n[nH]c4ccccc34)c3cc(Cl)ccc3n2)CCN1`, which inhibition [1] is on record?
Answer: The inhibition was 10%.

Question: For `CNC[C@H](C)NC(=O)c1nc(Nc2n[nH]c3ccccc23)c2cc(Cl)ccc2n1`, which inhibition [1] is on record?
Answer: The inhibition was 3%.

Question: Which results are given for `N[C@@H](CNC(=O)c1nc(Nc2n[nH]c3ccccc23)c2cc(Cl)ccc2n1)c1ccccc1`?
Answer: pIC50 [5]: 5.72; inhibition [1]: 78%; IC50 at 24 h [21]: > 10000 nM; pIC50 [22]: 7.89

Question: With `N[C@H](CNC(=O)c1nc(Nc2n[nH]c3ccccc23)c2cc(Cl)ccc2n1)c1ccccc1` as the compound, how does the inhibition [1] read?
Answer: The inhibition was 70%.

Question: What about the pIC50 [22] of the same compound?
Answer: Its pIC50 is 7.62.

Question: For `O=C(NCC1CNC1)c1nc(Nc2n[nH]c3ccccc23)c2cc(Cl)ccc2n1`, which inhibition [1] is on record?
Answer: The inhibition was 15%.

Question: For `C[C@@H](N)CNC(=O)c1nc(Nc2n[nH]c3ccccc23)c2cc(Cl)ccc2n1`, which inhibition [1] is on record?
Answer: Its inhibition is 35%.
